The assay deals with T1, HSA (Homo sapiens, UniProt P02768).
T1 construct: purchased Sigma A-8673
Kind of assay: Rates of reaction (kinetics of biotinylation) of library members with HSA. Type of assay: binding. The procedure: The rates of reaction of four members of the library with HSA were determined, and the kinetics describing the biotinylation of HSA by these members of the library is shown in FIG. 2. The curves all show a characteristic early fast phase of reaction followed by a slowing of the reaction at later times. The maximal rate of reaction is determined by chosing the best straight line fit for the early values of the time course.
Members of the library differ in their structures from that of the thiophenyl ester of biotin in that a pentapeptide with a C- terminus amide is present and the ester function is spatially distinct because its position is on the amino acid side chain of glutamate.

SMILES strings stand for the structures.

T1 sequence (P02768 25-609): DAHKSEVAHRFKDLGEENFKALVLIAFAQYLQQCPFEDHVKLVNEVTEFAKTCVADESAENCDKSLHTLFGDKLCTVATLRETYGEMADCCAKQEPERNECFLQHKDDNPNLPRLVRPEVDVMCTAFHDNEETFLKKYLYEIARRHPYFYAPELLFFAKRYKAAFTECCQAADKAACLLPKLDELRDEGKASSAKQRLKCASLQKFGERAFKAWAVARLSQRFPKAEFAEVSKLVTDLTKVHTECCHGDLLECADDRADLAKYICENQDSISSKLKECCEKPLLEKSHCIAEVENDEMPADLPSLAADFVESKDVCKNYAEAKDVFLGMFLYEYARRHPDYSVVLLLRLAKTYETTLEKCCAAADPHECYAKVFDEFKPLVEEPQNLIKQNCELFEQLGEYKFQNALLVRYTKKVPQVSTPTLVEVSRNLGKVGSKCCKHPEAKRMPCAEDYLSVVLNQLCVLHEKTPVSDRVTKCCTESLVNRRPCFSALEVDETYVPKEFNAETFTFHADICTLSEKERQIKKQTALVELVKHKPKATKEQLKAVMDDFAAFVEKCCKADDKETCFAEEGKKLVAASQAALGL

In the case of `O=C1NC2CSC(CCCCC(=O)Sc3ccccc3)C2N1` (centres unmarked) [Thiophenyl Biotin, thiophenyl ester of biotin], under “maximal rate of biotinylation of HSA, best straight line fit of early time course (FIG. 2)”, the Rate is listed as 0.0004-0.002 OD units/min. In addition, the “Fold Increase over 80 μM thiophenyl biotin” value (rate of reaction with HSA relative to thiophenyl ester of biotin) turned out to be 1 fold.

(Values after patent US6277583A, “Affinity labeling libraries and applications thereof” (Conjuchem, Inc., priority 1996, dated 2001).)
